Test: Antioxidant activity against copper-induced lipid peroxidation in human LDL after 1 hr relative to probucol
Assay type: functional

Structure (SMILES)	Activity [%]
CC(C)(Sc1cc(C(C)(C)C)c(O)c(C(C)(C)C)c1)Sc1cc(C(C)(C)C)c(O)c(C(C)(C)C)c1	1
COC1=CC(=O)c2ccc3cc(OC)cc(O)c3c2C1=O	0.4
COc1cc(CCc2cc(OC)c(O)c(OC)c2)ccc1O	7.8
COC1=Cc2ccc3cc(O)ccc3c2C(=O)C1(O)CC(C)=O (configuration not stated)	5.3
CCOC1=CC(=O)c2ccc3cc(OC)cc(O)c3c2C1=O	0.2
COc1cc(CCc2ccc(O)c(OC)c2)cc(OC)c1	0.9
Oc1ccc(/C=C/c2cc(O)cc(O)c2)cc1	0.7

— ChEMBL document CHEMBL1144105, “Antioxidant principles from Ephemerantha lonchophylla” (J Nat Prod, 1999)
